Reference: PubChem BioAssay AID2393 (NMMLSC, 2010)
Active and inactive are the calls of the source.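 How the source made its calls: active means none, because compounds meeting the potency rule were filed inconclusive for hitting several proteins; inconclusive means EC50 under 20 µM with over 15% binding change; inactive means the rest.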

Tests used:
Test in all cases: small GTPase panel, fluorescent GTP binding blockade – biochemical, Mg buffer, constant GTP, RhoA, Rac1, Cdc42, mechanism study for Ras-family GTPase inhibitor project, profiling panel (AID 2393);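 on EC50: EC50 marks half change in GTP binding and may reflect gain or loss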
[1] = biological target: Ras-related C3 botulinum toxin substrate 1 (Homo sapiens) (UniProt P63000); conditions: GST-GTPase beads, BODIPY-GTP binding, flow cytometry; for GTP binding remaining (% of DMSO): at 100 µM (top of the series)
[2] = biological target: Transforming protein RhoA (Homo sapiens) (UniProt P61586); conditions: GST-GTPase beads, BODIPY-GTP binding, flow cytometry, at 100 µM (top of the series)
[3] = biological target: Cell division control protein 42 homolog (Homo sapiens) (UniProt P60953); conditions: GST-GTPase beads, BODIPY-GTP binding, flow cytometry; for GTP binding remaining (% of DMSO): at 100 µM (top of the series)

GTP binding remaining (% of DMSO) ([2]; RhoACT)	GTP binding remaining (% of DMSO) ([2]; RhoWT)	EC50 ([3]; Cdc42ACT) [µM]	EC50 ([3]; Cdc42WT) [µM]	GTP binding remaining (% of DMSO) ([3]; Cdc42ACT)	GTP binding remaining (% of DMSO) ([3]; Cdc42WT)	SMILES	GTP binding remaining (% of DMSO) ([1]; Rac1ACT)	EC50 ([1]; Rac1WT)	GTP binding remaining (% of DMSO) ([1]; Rac1WT)
inactive	inactive	5.22	5.19	–	–	COc1ccc(C2CC(c3ccsc3)=NN2c2ccc(S(N)(=O)=O)cc2)cc1 (configuration not stated)	inactive	inactive	–
inactive	inactive	–	–	inactive	inactive	COc1ccc(C2CC(c3cccc(C(F)(F)F)c3)=NN2c2ccc(S(N)(=O)=O)cc2)cc1 (configuration not stated)	inactive	–	inactive
